Laboratory results published in patent US20160264616A1, “THERAPEUTIC COMPOUNDS AND METHODS” (priority 2015, published 2016).

System: RGS17ΔN:Gαo interaction in HEK293T cells
Test: RGS localization assay, GFP-RGS17ΔN co-transfected with hGαo in HEK293T cells
Format: cell-based, human
Details: for delocalization of RGS17ΔN from the membrane: 100 μM compound
Procedure: HEK293T cells co-transfected with GFP-RGS17FL and human Gαo were treated with UI-5, UI-1590 and […] to determine if the compounds could disrupt the RGS17:Gαo interaction that could drive RGS17 to the membrane. […] To test this hypothesis, we constructed a GFP-RGS17 fusion protein with an N-terminal truncation, removing the cysteine-rich motif. […] As a negative control, we tested a known RGS4 inhibitor (CCG-50014) in this assay against RGS17ΔN (21). […] Finally, to ensure the localization was not due to the GFP tag, pAcGFP vector was co-transfected into HEK293T cells with hGαo. […] Cross-sectional fluorescence intensity analysis was used to quantify the intensity of signal at a cross section of the cell. Average signal at the membrane and in the cytoplasm were calculated and change in signal intensity was assessed between time zero and time final. […] Additionally, the control condition of CCG-50014 was subject to the same analyses as the lead compound.
Twenty four (24) hours prior to plating, assay plates were coated with 30 μl poly-D-lysine per well. Human Embryonic Kidney 293T cells (HEK293T) were plated in to 96 well tissue culture treated glass bottom view plates (Perkin Elmer, Part No. 6005430) at a density of 25K cells per well. 24 hours post seeding, cells were transfected with hGαo in pCDNA 3.1(+), pAcGFPRGS17 FL, pAcGFP RGS17ΔN, empty pAcGFP, hGαo+pAcGFPRGS17 FL, hGαo+pAcGFP RGS17ΔN, or hGαo+empty pAcGFP vector using Lipofectamine 2000 (Life Technologies) as the transfection reagent and according to manufacture protocols. 24 hours post transfection, cell media was removed and replaced with […] serum free, phenol red free DMEM (Life Technologies, Ref No. 31053-028). Cells were then imaged using a Zeiss LSM510 confocal microscope (University of Iowa Central Microscopy Core). Images were analyzed using NIH Image J software and Graphpad Prism 6.
Compounds at 2× final desired concentrations were diluted in serum free, phenol red free DMEM.

Cc1ccc(-n2sc(=O)n(Cc3ccc(F)cc3)c2=O)cc1 [CCG-50014, reference compound]
delocalization of RGS17ΔN from the membrane: No delocalization was observed | delocalization of RGS17ΔN from the membrane (listed as 50014): did not result in RGS17ΔN delocalization | change of membrane and cytosolic fluorescence signal (Image J cross-section) (time zero versus time final): no significant change of signal
